Source: publication PMC5618657, “Osmolyte-Like Stabilizing Effects of Low GdnHCl Concentrations on D-Glucose/D-Galactose-Binding Protein” (International Journal of Molecular Sciences, 2017)
Read-outs that look alike come from different tables or passages of the source.

Assays:
Parameters in all cases: species or system E. coli
GGBP/H152C-BADAN = biological target: T1, GGBP/H152C-BADAN (Escherichia coli, UniProt P0AEE5, H175C); assay: Stopped-flow fluorescence kinetics of glucose binding; conditions: glucose 0.5 mM, protein 0.6 μM, 23 °C
T1 construct: polyhistidine (C); BADAN (fluorescent dye covalently linked to Cys152); made in house; host or cells: E. coli BL21(DE3)
T1 sequence (P0AEE5 24-332 H175C limits assumed): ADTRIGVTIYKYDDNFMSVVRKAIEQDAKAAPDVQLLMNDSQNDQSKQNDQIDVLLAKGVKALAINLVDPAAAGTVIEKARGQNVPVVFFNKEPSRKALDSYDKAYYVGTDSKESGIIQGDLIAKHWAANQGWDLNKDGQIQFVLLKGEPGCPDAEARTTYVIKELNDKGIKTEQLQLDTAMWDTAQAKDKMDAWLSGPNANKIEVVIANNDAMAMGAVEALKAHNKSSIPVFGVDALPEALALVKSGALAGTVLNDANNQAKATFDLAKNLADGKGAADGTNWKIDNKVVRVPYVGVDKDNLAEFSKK
Excerpt: The greater affinity of GGBP to glucose in the presence of low GdnHCl concentrations was also manifested by an increase in the binding rate of glucose to the protein in the presence of 0.1 M GdnHCl. It is known that, at high concentrations of one of the reactants, the reaction rate is predominately determined by the content of the substance with a low concentration (pseudo-first order conditions). Therefore, it can be expected that in solutions of high glucose concentration, the rate of the GGBP/H152C-glucose complex formation will be determined by the content of molecules with the semi-closed conformations in a protein ensemble. […]
It is expected that the decay curves should contain at least two rate constants characterizing the interconversion between the protein conformers in the absence of ligand and reflecting the glucose binding to GGBP/H152C [88]. […] Therefore, in practice, the recorded curves are approximated by monoexponential decay.
The kinetics of glucose binding to GGBP/H152C-BADAN in a timeframe from 0 to 0.04 s was measured using the MOS450spectrometerequipped with the stopped-flow mixing module SFM-4 (Bio-Logic, Seyssinet-Pariset, France). The excitation wavelength was 387 nm, the dye fluorescence signal was filtered by cut-off filter at 405 nm. […]

wtGGBP = biological target: T2, wtGGBP (Escherichia coli, UniProt P0AEE5); assay: Isothermal titration calorimetry of glucose binding (wild type); conditions: read-out: Kd (ITC)
T2 construct: polyhistidine (C); made in house; host or cells: E. coli BL21(DE3)
T2 sequence (P0AEE5 24-332 limits assumed): as the sequence (P0AEE5 24-332 H175C limits assumed) above, with C152H counted along it
Excerpt: (§1) For this purpose, we used isothermal titration calorimetry (ITC) (Figure 7), since this approach allows for the determination of both the stoichiometric and thermodynamic binding parameters. The results of the ITC analysis generally corresponded to the data generated by the fluorescent-based analysis of the GGBP/H152C-BADAN interaction with glucose in solutions with sub-denaturing GdnHCl concentrations. […] The enthalpy contribution to the Gibbs free energy change caused by the interaction of studied proteins with glucose was principal in all solutions tested. This indicates the significant contribution of the hydrogen bonds between protein and glucose to the protein-ligand complex formation, [91] which is in excellent agreement with the X-ray structural data showing that the glucose binding to the GGBP active center is stabilized by 13 hydrogen bonds. […]
(§2) The parameters of the binding of mutant GGBP/H152C and wtGGBP with glucose in buffer, GdnHCl, and urea solutions were determined using the isothermal titration calorimeter TA Nano ITC (TA Instruments, New Castle, DE, USA) at the Resource Center of the Thermogravimetric and Calorimetric Research (Research Park of St. Petersburg State University). […]

GGBP/H152C = biological target: T3, GGBP/H152C (Escherichia coli, UniProt P0AEE5, H175C); assay: Isothermal titration calorimetry of glucose binding (mutant); conditions: Kd (ITC)
T3 construct: polyhistidine (C); made in house; host or cells: E. coli BL21(DE3)
T3 sequence (P0AEE5 24-332 H175C limits assumed): as the sequence (P0AEE5 24-332 H175C limits assumed) above
Excerpt: as §1, §2

[1] = solution without denaturants (black)

OC[C@H]1OC(O)[C@H](O)[C@@H](O)[C@@H]1O (stereo partly drawn) [glucose, D-Glucose]
k (rate of GGBP/H152C-glucose complex formation) (GGBP/H152C-BADAN; in 0.1 M GdnHCl): 508 s⁻¹ | k (rate of GGBP/H152C-glucose complex formation) (GGBP/H152C-BADAN; without denaturants): 465 s⁻¹ | Kd (wtGGBP; 0.1 M GdnHCl (red)): 280 ± 60 nM | Kd (wtGGBP; [1]): 310 nM | Kd (GGBP/H152C; 0.1 M GdnHCl (red)): 2290 ± 80 nM | Kd (GGBP/H152C; [1]): 3050 nM
